According to patent US6254889A, “Solid dispersion dosage form of amorphous xanthine derivative and enteric-coating polymer” (Kyowa Hakko Kogyo Co., Ltd., priority 1995, dated 2001):

Experiment: Comparative absorbability test, oral administration to beagles (pharmacokinetics)
Assay type: in vivo
Settings: male beagle, oral with 20 ml water, 0-24 h, in terms of 3 mg/kg (doses given: Examples 6-8 3 mg/kg, crystal 6 mg/kg, Comparative Example 1 4 mg/kg)

The Area under the Plasma Concentration Curve, Intact Drug (in terms of 3 mg/kg): 69.9 ± 2.6 ng·h/mL
SMILES: CCCn1c(=O)c2[nH]c(C34CC5CC(CC3C5)C4)nc2n(CCC)c1=O [Compound No. 1]
